Two compounds from patent US7338932B2, “Methods of modulating functions of polypeptide GalNAc-transferases and of screening test substances to find agents herefor, pharmaceutical compositions comprising such agents and the use of such agents for preparing medicaments” (Glycozym APS, priority 2000, dated 2008) can be followed below.

“Also recorded” adds a separate entry of the source.

Experiment [1] deals with CHOldlD/MUC1F-clone2 cells. The experiment can be described thus: Cell surface expression of MUC1 by immunocytology. The settings on record: 1 mM; cells grown in GalNAc; FIG. 13. Type of experiment: cell-based, Chinese Hamster. The protocol:
We therefore investigated the effect of treatment with GalNAcα-benzyl of CHOldlD/MUC1F-clone2 cells grown in the presence of GalNAc. CHOldlD/MUC1F-clone2 cells were seeded in 6 well plates at a density of 0.2×10^6 per well and were grown for 6 hours in Hams F12 medium with serum until approximately 30% subconfluent. […] After 18 hours, the medium was replaced with fresh Optimem containing the sugars and benzyl derivatives as above and grown for 12-48 hours. Initially we analyzed surface expression of MUC1 by immunocytology. Cells were washed once in PBS-CMF (phosphate buffered saline Calcium and Magnesium free) after carefully removing the medium from the wells and subsequently fixed in 2 ml 3% paraformaldehyde at 25° C. for 20 min followed by three washes with PBS-CMF 3 times. Free aldehyde groups were quenched by incubating in 2 mL 50 mM Ammonium Chloride in PBS-CMF for 10 min, followed by three washes with PBS-CMF and three washes with 5 min incubations each with PBS-CMF containing 0.2% Fish Skin Gelatin (Sigma). Immunostaining of cells was performed by incubation with monoclonal antibodies for 40 min at 25° C., followed by three washes with PBS-CMF and three washes of 5 min each with PBS-CMF containing 0.2% Fish Skin Gelatin. […]

Experiment [2] addresses Helix Pomatia lectin (HPA) (Helix pomatia, UniProt Q2F1K8). The experiment can be described thus: Direct binding ELISA, competitive inhibition, Helix Pomatia lectin control. The settings on record: read-out: Concentration required for 50% inhibition (IC50), HPA; control plant lectin. The source says:
Glycopeptides were purified by C-18 reverse phase HPLC. Peptides were custom synthesized by Neosystems (Strasbourg). Biotinylated Helix Pomatia lectin (HPA) was from KemEnTec (Denmark). Anti-MUC1 HMFG2 monoclonal antibody was a generous gift from Joyce Taylor-Papadimitriou. Anti-MUC1 SE5 monoclonal antibody was developed by immunizing Balb/c mice with 60-mer MUC1 tandem repeat peptide glycosylated with 5 moles GalNAc per repeat. Monoclonal antibodies to the lectin domains of human GalNAc-T2 and -T4 were developed as previously described^8, 63.
(§1) Direct binding ELISA assay was developed as follows: Polystyrene microtiter plates (Maxisorb, Nunc, Denmark) were coated with peptides or enzymatically glycosylated glycopeptides in PBS overnight at 4° C. Plates were washed and blocked with 0.1% Tween20 and 0.2% BSA in PBS for 1 h at room temperature, followed by incubation with biotinylated proteins in PBS with 0.05% Tween20 for 2 h at room temperature. After four washes with PBS, plates were incubated with 1:2,000 dilution streptavidin-HRP (Sigma) in PBS for 30 min at room temperature and washed four times with PBS. Development was performed with 0.5 mg/ml o-phenylenediamine and 0.02% H2O2 at room temperature for 15 min, and reaction stopped by adding 100 μl/well of 0.5 N H2SO4. Competitive inhibition assays were done at end-point titers of GalNAc-transferase proteins with one hour preincubations with inhibitor.
Inhibition experiments were used to further define the binding specificity of GalNAc-T2 and -T4 secreted soluble enzymes as well as lectin domains compared to Helix Pomatia lectin (Table VII).

The test system of experiment [3] is CHOldlD/MUC1F-clone2 cells. The experiment can be described thus: MUC1 expression in cell lysates, immunoprecipitation and SDS-PAGE western blot. Type of experiment: cell-based, Chinese Hamster. The settings on record: 2 mM. How it is done: We next analysed the expression of MUC1 produced by CHOldlD/MUC1F-clone2 cells by SDS-PAGE western analysis. […] Cells were further treated with 2 mM GalNAcα-benzyl, GlcNAcα-benzyl or no inhibitor. Cells were washed and lysed at 24 or 48 hours and the lysates subjected to immunoprecipitation with monoclonal antibody HMFG2, which broadly recognize MUC1 glycoforms. Immunoprecipitates were analysed by SDS-PAGE and western blot using HMFG2 antibody to detect MUC1 expression. […] In striking contrast, treatment with GalNAcα-benzyl had significant effect after 48 hours. […] This indicates some heterogeneity in glycosylation.
As shown in Examples 8 and 9, polypeptide GalNAc-transferases contain lectin domains with binding properties for GalNAc-peptides including GalNAc-MUC1 peptides. […] GalNAcβ-benzyl, the β-anomeric configuration of GalNAc-benzyl (there is a β linkage between the N-acetylgalactosamine and the benzyl ring), was custom synthesized by Alberta Research Council (Canada), and its structure was confirmed by mass spectrometry and ^1H-NMR. […] Cells were then treated with 2 mM GalNAcα-benzyl, GalNAcβ-benzyl, or GlcNAcα-benzyl as control (GlcNAcα-benzyl was shown in Example 10 to have no effect). Cells were washed and lysed as described above after 36 hours and the lysates subjected to immunoprecipitation with anti-MUC1 monoclonal antibodies HMFG2 or 5E5. […] FIG. 17 illustrates the same experiments as in FIG. 16 except that the detection antibody is 5E5 and only Tn and STn MUC1 glycoforms are visualised.

Experiment [4] addresses T1, GalNAc-T4 lectin domain (T4ld) (Homo sapiens, UniProt Q8N4A0).
T1 construct: made in house; host or cells: High Five insect cells (baculovirus, pAcGP67-A)
The experiment is described as follows: Direct binding ELISA to GalNAc-MUC1 glycopeptide, competitive inhibition, T4ld. The protocol: (§2) Protein biotinylation was made as previously reported^62. The pH of 1 ml purified protein (0.3 mg/ml) in PBS was adjusted to pH 9 with 1 M NaOH and 40 μl N-hydroxy-succinimidobiotin (Sigma) dissolved in DMF (10 mg/ml) was added. The solution was mixed end-over-end for 2 hours at room temperature, and dialyzed three times against PBS and an equal volume of glycerol was added. The biotinylated proteins were stored at −20° C. in 50% glycerol until use.
as §1
(§3) In binding studies using lectins without biotinylation antibodies to the HIS-tag and the T7-tag, or in some experiments antibodies raised to GalNAc-T2 and -T4 enzymes were used to detect binding.

Experiment [5] concerns the target T2, secreted soluble GalNAc-T4 (sT4) (Homo sapiens, UniProt Q8N4A0).
T2 construct: using the GalNAc-T4-sol construct that encodes residues 32-578 inserted into pT7T3U19; 6xHis (N); thrombin cleavage site (N); T7 tag (N); made in house; host or cells: High Five insect cells (baculovirus)
The experiment can be described thus: Direct binding ELISA to GalNAc-MUC1 glycopeptide, competitive inhibition, sT4. The protocol:
as §2, §1, §3

Setting [6] is: 48 hours, IP HMFG2, blot HMFG2, grown in GalNAc or Gal and GalNAc.

Consider `CC(=O)N[C@H]1[C@@H](OCc2ccccc2)O[C@H](CO)[C@H](O)[C@@H]1O` [GalNAcα-benzyl], for which the “Cell surface expression of MUC1” value in experiment [1] is “strong inhibition”. The IC50 in experiment [2] is 500 µM. Further, the MUC1 expression entry is on record as “no significant effect” in experiment [3] (24 hours, IP HMFG2, blot HMFG2); “strong inhibition” in experiment [3] (36 hours, blot 5E5, cells grown in GalNAc); “significant reduction in MUC1 expression” in experiment [3] (setting [6]). In experiment [3] (48 hours, cells grown in Gal and GalNAc, blot HMFG2), the “SDS-PAGE migration of MUC1 (O-glycosylation)” value is “significant shift in migration”.

As for `CC(=O)N[C@H]1[C@@H](OCc2ccccc2)O[C@H](CO)[C@@H](O)[C@@H]1O` [GlcNAcα-benzyl], in experiment [1], the “Cell surface expression of MUC1” value is listed as “no inhibition”. For the same compound, the results for the IC50 in experiment [2], in experiment [4] and in experiment [5] (binding to GalNAc-MUC1 glycopeptide) were 2000 µM, over 100000 µM and over 100000 µM, respectively. In addition, in experiment [3] (setting [6]), the MUC1 expression entry is recorded as “produced the same glycoforms at similar intensity as cells without treatment; also recorded: no effect”. Further, the “Inhibition of GalNAc-T4 lectin binding” value in experiment [5] (FIG. 7, ELISA plates with GalNAc-Muc1) is on record as “no inhibition”.
